Measurements: patent publication US10300092B2, “Bee bloom compositions, methods of extraction and uses thereof” (KANE, Penny Coleen, priority 2011, dated 2019)

Tested on: sensitized rat intestine
Experiment: In vitro anaphylaxis: ovalbumin (antigen)-induced contractile response of sensitized rat intestine in organ bath
Type: cell-based
Conditions: control peptide feG 10^−8 M
Protocol: Data are expressed as the mean +/− standard error. The data were analyzed using Student's t test for paired samples. Significant differences were accepted if p <0.05. Outlier analysis was performed using a modified Z-score that uses the median of absolute deviation A Z-score with an absolute value of greater than 4.0 was labeled as a potential outlier, and the corresponding data value was excluded.
Male Sprague Dawley rats (Charles River Laboratories, Montreal, QC) of initial weights of 150 g were maintained with lights on from 700 to 1900 h and given food and water ad libitum. The rats were sensitized to 1 mg ovalbumin (OA) using 50 ng of pertussis toxin (Sigma-Aldrich, St. Louis, Mo.) as an adjuvant.
Five to eight weeks following sensitization, the terminal duodenum of the rats was excised and 1 cm sections were mounted in 25 ml organ baths, containing bicarbonate Krebs′ buffer, with 1.0 g of tension. The isometric force generated in response to OA and carbachol (CAR; (2-[(aminocaronyl)oxyl-N,N,N-trimethylethanaminium), a cholinergic agonist, (Sigma-Aldrich) was measured using a Grass Force Displacement Transducer FTO3 (Quincy, MA>. Data were recorded with PolyView software (Polybytes, Inc., Cedar Rapids, Iowa). The tissues were allowed to equilibrate for 30 min during which they were washed several times with buffer, and applied tension was adjusted.
Eight tissue segments were mounted in separate tissue baths, with one tissue segment serving to evaluate if the intestinal tissues elicit a contractile response to the antigen. […] In the absence of a contractile response to antigen the tissues were discarded, and another animal taken.
Once peak contractile responses were attained the tissues were washed three times, baseline re-established and peak contractile response to 10^−5M CAR obtained. The mucosa was then scraped from the tissue, and the mass of the muscle determined. Responses were determined as grams of force/mg wet tissue.
Contractile responses to OA and CAR were measured at peak contraction, and calculated as grams of force per gram wet tissue. Results are expressed in three formats: • i) the amplitude of the OA-induced contractile response (grams of force/mg wet tissue), • ii) the ratio of the Bee Bloom response to the OR response (Bee Bloom/OA) (i.e. animal matched control), • iii) the ratio of the OA and CAR-induced contractile responses (ONCAR) (i.e. tissue matched controls).

D-phenylalanine-D-glutamate-Glycine [control]
inhibition of antigen-induced contractions (FIGS. 1 and 2): significantly inhibited
inhibition of antigen-induced contractions, ratio to OA response, animal matched control (FIG. 3): significantly inhibited
inhibition of the OA:CAR ratio, tissue matched controls (FIG. 4): did not significantly inhibit
inhibition of antigen-induced contractions (stated as closely matched by Bee Bloom): ~−40%
